Our source for the Stability and Binding values is ChEMBL document CHEMBL1123219, “Functional cholesteryl binding agents: synthesis, characterization, and evaluation of antibody binding to modified phospholipid vesicles” (J Med Chem, 1986).

For assay [1], the species on record is Homo sapiens. Description: Compound was tested for human IgG protein stability at 100 ug/mL. The class given is functional.
The species named for assay [2] is Homo sapiens. The assay is described as follows: Compound was tested for human IgG protein binding at 1 mg/mL.
The species entered for assay [3] is Homo sapiens. The assay is described as follows: Compound was tested for human IgG protein binding at 100 ug/mL.

For the compound `CC(C)CCCC(C)C1CCC2C3CC=C4CC(OCCCCCCSCc5ccc(C(=O)ON6C(=O)CCC6=O)cc5)CCC4(C)C3CCC12C` (stereo not drawn), in the assay filed under Homo sapiens [1], the Stability was 91.8%. In addition, the Binding in the assay filed under Homo sapiens [2] came out at 43.3%; in the assay filed under Homo sapiens [3], 60.4%.
The like results for `CC(C)CCCC(C)C1CCC2C3CC=C4CC(OCCCCCCC(=O)ON5C(=O)CCC5=O)CCC4(C)C3CCC12C` (stereo not drawn) were, in that order, 91%, 46% and 69.5%.
The like results for `CC(C)CCCC(C)C1CCC2C3CC=C4CC(OCCCCCC(=O)ON5C(=O)CCC5=O)CCC4(C)C3CCC12C` (stereo not drawn) were, in that order, 94.1%, 40.3% and 77.5%.
The like results for `CC(C)CCCC(C)C1CCC2C3CC=C4CC(OCCCCCCN=C=S)CCC4(C)C3CCC12C` (stereo not drawn) were, in that order, 86.5%, 31.9% and 55.9%.
As to `CC(C)CCCC(C)C1CCC2C3CC=C4CC(OCCCCCCNC(=O)c5cccc(N6C(=O)C=CC6=O)c5)CCC4(C)C3CCC12C` (stereo not drawn), the Stability in the assay listed under Homo sapiens [1] is 86%. The Binding in the assay listed under Homo sapiens [2] was 39.5%; in the assay filed under Homo sapiens [3], 61.1%.
As for `CC(C)CCCC(C)C1CCC2C3CC=C4CC(OCCCCCCO)CCC4(C)C3CCC12C` (stereo not drawn), the Stability in the assay listed under Homo sapiens [1] came out at 86.4%. Further, the Binding in the assay listed under Homo sapiens [2] is 31.9%; in the assay listed under Homo sapiens [3], 58.7%.
